Experimental data as given in US20240409864A1, “Apparatus and Methods for Generating and Analyzing Three-Dimensional Cellular Materials” (Agilent Technologies, Inc., priority 2021, published 2024).

Assays:
Panc1 spheroids [1] = assay: Mitochondrial stress test, oxygen consumption rate (Seahorse XF); assay type: cell-based; conditions: Panc1 spheroids assayed after 8 days; polished plate, 20 microliters Lipidure coating; FIG. 15
Description: (§3) A common test performed on the system described above is a mitochondrial stress test. In this assay a series of injections are delivered through the drug ports of the cartridge in order to measure the response of the biological sample to various compounds (oligomycin, FCCP, rotenone and antimycin). These compounds are preloaded into a drug reservoir (port) on the XF cartridge prior to execution of the assay. When the cartridge is inserted into the instrument it is coupled to a manifold which when activated by a solenoid valve, provides pneumatic pressure to the head space of the reservoir forcing the compound through a small orifice and into the well containing the biological sample.
First, Panc1/HepG2 cells were grown in the well plates generally contemplated by the present disclosure but with only a single concentric lip as well as commercially available plates, followed by the transfer of the spheroids cultured in the commercially available plates to the plates of the present disclosure. The experimental protocol was as follows: • 1. Add 50 ul of Lipidure solution (prepared in ETOH) to the plates. Leave overnight at 37 degrees C. or at 50 degrees C. for 1 hour for the ETOH to evaporate. • 2. Trypsinize the HepG2 with multiple washes of Mg—Ca free PBS to make single cells. Leave in incubator at 37 deg C. for 2-3 mins. • 3. […]

Panc1 spheroids [2] = conditions: Panc1 spheroids about 325 and 250 micrometers, final concentration 1 μM, BioFLOAT coating, no centrifugation
Description: (§1) Panc1, HepG2, and C2C12 cell lines were used to form spheroids in an apparatus with wells having the geometry shown at least in FIGS. 2, 3, and 4 of the present disclosure. The wells were coated with either Lipidure® or BioFLOAT® ultra low adhesion coatings according to manufacturer protocols, after which the cell lines were introduced to the well plates and spheroids were formed according to the following protocol: • Apply ULA coatings according to manufacturer's protocols • Use trypsin to detach cells of interest (C2C12, Panc1, or HepG2) and create a single cell suspension • Deactivate trypsin via addition of complete culture media • Perform a cell count • Centrifuge the cell suspension at 250 G for 5 minutes and resuspend the pellet in fresh medium at the required density. • Add 300-1500 cells per well with fresh growth medium to a final volume of 200 ul per well • Centrifuge, if necessary, at 250 G for 5 minutes with low deceleration. Centrifugation helps the cells to come together, if needed. • When desirable tight clusters are formed (typically 3-5 days), proceed with the Seahorse XF assay. • DMEM PH 7.4 media from Seahorse supplemented with glutamine, sodium pyruvate and glucose were used (same concentration as the growth medium). • With a multiple channel, pull out about 100 microliters of spent medium and add 100 microliters of fresh Seahorse medium slowly sliding through the walls. • Follow with 3-5 washes to dilute out the old media from the wells. • Perform desired Seahorse assay-Basal, Mito Stress Test, FCCP addition, or others.
(§2) Next, C2C12 and Panc1 cells were seeded in BioFLOAT® coated spheroid plates as contemplated by the present disclosure at two different concentrations. The cells were allowed to settle without centrifugation and form spheroids for two days. […] The largest cross-sectional diameter was measured to characterize the size of the spheroids.

C2C12 spheroids = C2C12 spheroids about 180 and 140 micrometers, final concentration 1 μM, BioFLOAT coating, no centrifugation
Description: as §1, §2

HepG2 spheroids = assay: Mitochondrial stress test, oxygen consumption rate (Seahorse XF); assay type: cell-based; conditions: HepG2 spheroids assayed after 6 days, 50 microliters Lipidure coating
Description: as §3
The experimental protocol was as follows: • 1. Add 50 ul of Lipidure solution (prepared in ETOH) to the plates. Leave overnight at 37 degrees C. or at 50 degrees C. for 1 hour for the ETOH to evaporate. • 2. Trypsinize the HepG2 with multiple washes of Mg—Ca free PBS to make single cells. Leave in incubator at 37 deg C. for 2-3 mins. • 3. Transfer cells to centrifugal tube and add PBS to fill half the tube then count cells based on density prior to centrifugation. • 4. Centrifuge the cell suspension and resuspend the pellet in fresh medium. • 5. Add 10K cells per well with fresh growth medium (180 ul per well) • 6. Centrifuge, if necessary, at 1000 rpm for 2-3 minutes with low deceleration. Centrifugation helps the cells to come together, if needed. • 7. When desirable tight clusters are formed (3-5 days), proceed with the Seahorse XF assay. • 8. For HepG2, DMEM PH 7.4 media from Seahorse supplemented with glutamine, sodium pyruvate and glucose were used (same concentration as the growth medium). • 9. With a multiple channel, pull out about 150 microliters of spent medium and add 180 microliters of fresh Seahorse medium slowly sliding through the walls. • 10. Follow with 2-3 washes to dilute out the FBS from the wells. • 11. After every wash check if the spheroid is still in the center. The white spot of the spheroid is easily seen on dark lab counter tops. • 12. Follow known protocol for traditional oxygen consumption rate (OCR) assay based on the mitochondrial stress test described in detail above. • 13. Take before and after images to verify the spheroids remain centered throughout. • 14.
Further, and referring to FIGS. 16 and 17, the oxygen consumption rate was performed on wells 1-6 using the mitochondrial stress test described above using HepG2 spheroids generated and assayed after 6 days in a plate with the geometric configuration of the present disclosure.

Molecule	oxygen consumption rate response (Panc1 spheroids [1])	oxygen consumption rate (OCR) after injection (Panc1 spheroids [2]; FIG. 42)	extra cellular acidification rate (ECAR) after injection (Panc1 spheroids [2]; FIG. 43)	oxygen consumption rate (OCR) after injection (C2C12 spheroids; FIG. 44)	extra cellular acidification rate (ECAR) after injection (C2C12 spheroids; FIG. 45)	oxygen consumption rate response (HepG2 spheroids; polished plate, FIG. 19)	oxygen consumption rate response (HepG2 spheroids; unpolished plate, FIG. 17)
FCCP	good response	increased	increased	increased	increased	good response	good response
CC[C@H]1/C=C/C=C/C[C@@H](C)[C@H](O)[C@@](C)(O)C(=O)[C@@H](C)[C@H](O)[C@@H](C)C(=O)[C@@H](C)[C@H](O)[C@@H](C)/C=C/C(=O)O[C@@H]2[C@H](C)[C@H](CC1)O[C@]1(CC[C@H](C)[C@H](C[C@@H](C)O)O1)[C@H]2C [oligomycin]	did not show the dip on oxygen consumption					good response	good response
